Results taken from EP1377579B1 (Aventis Pharmaceuticals Inc., priority 2000, dated 2002).
Structures can show the parent of a compound that is named as a salt.

Legend:
cdk4/cyclin D1 = cdk4/cyclin D1 (Homo sapiens, UniProt P11802); assay: Cyclin-dependent kinase assay, cdk4/cyclin D1; format: biochemical; settings: cyclin D1/cdk4; GST-pRb substrate, 10 µM ATP
MDA-MB-435 = assay: In vitro proliferation assay (MTT), MDA-MB-435; format: cell-based, human; settings: Homo sapiens, MDA-MB-435, MTT assay; value (SD, n) where given; read-out: MB-435 Breast (IC50 µM)
Protocol: (§1) The proliferation of tumor cells can be measured using a tetrazolium salt-based assay known as the MTT (3-[4,5-Dimethylthiazol-2-yl]-2,5-diphenyltetrazolium bromide) assay. […] For the assay, the cell lines are plated onto 96 well plates at 1000 to 2500 cells/well (depending on the properties of the individual cell lines), left to attach and recover overnight. […] After 3 days, the cells are incubated with MTT dye (3-[4,5-Dimethylthiazol-2-yl]-2,5-diphenyltetrazolium bromide, Sigma # M5655, 10 mg/ml in Hank's Buffered Saline) to estimate the amount of live cells remaining vs. concentration for the test compounds. […] The MTT and culture medium is then removed from the cultures and 200 µl of DMSO is added to solubilize the dye from the cell layer. The absorbance at 570 nm is determined for each culture using a Spectramax plate reader (Molecular Devices).
(§2) IC50s were determined from the raw data from either the MTT or SRB assays.
(§3) All of the cell lines were obtained from American Type Tissue Collection, with the ATCC accession number in parentheticals. MCF-7 and MDA-MB-231 cells were grown in improved minimum essential medium (Biofluids) without phenol red, supplemented with 5 % fetal bovine serum, 0.01 mg/ml gentamicin and 3 mM L-glutamine.

PC-3 = assay: In vitro proliferation assay (MTT), PC-3; format: cell-based, human; settings: Homo sapiens, PC-3, MTT assay; value (SD, n) where given; read-out: PC-3 Prostate (IC50 µM)
Protocol: as §1, §2, §3

cdk1/cyclin B = cdk1/cyclin B (Homo sapiens, UniProt P06493); assay: Cyclin-dependent kinase assay, cdk1/cyclin B; settings: CDK1 IC50, nM, Histone H1, 10 µM ATP
cdk2/cyclin E = cdk2/cyclin E (Homo sapiens, UniProt P24941); assay: Cyclin-dependent kinase assay, cdk2/cyclin E; settings: CDK2 IC50, nM, GST-pRb substrate, 10 µM ATP

Chain of cdk1/cyclin B (P06493 whole entry): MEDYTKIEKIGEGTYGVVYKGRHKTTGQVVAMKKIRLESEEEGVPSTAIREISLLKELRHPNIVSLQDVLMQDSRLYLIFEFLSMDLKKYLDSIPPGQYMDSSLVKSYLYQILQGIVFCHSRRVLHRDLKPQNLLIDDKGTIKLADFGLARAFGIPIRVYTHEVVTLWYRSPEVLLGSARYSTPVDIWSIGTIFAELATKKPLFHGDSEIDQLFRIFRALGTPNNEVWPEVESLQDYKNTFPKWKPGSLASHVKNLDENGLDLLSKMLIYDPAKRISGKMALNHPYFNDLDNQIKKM
Chain of cdk1/cyclin B (P14635 whole entry partner): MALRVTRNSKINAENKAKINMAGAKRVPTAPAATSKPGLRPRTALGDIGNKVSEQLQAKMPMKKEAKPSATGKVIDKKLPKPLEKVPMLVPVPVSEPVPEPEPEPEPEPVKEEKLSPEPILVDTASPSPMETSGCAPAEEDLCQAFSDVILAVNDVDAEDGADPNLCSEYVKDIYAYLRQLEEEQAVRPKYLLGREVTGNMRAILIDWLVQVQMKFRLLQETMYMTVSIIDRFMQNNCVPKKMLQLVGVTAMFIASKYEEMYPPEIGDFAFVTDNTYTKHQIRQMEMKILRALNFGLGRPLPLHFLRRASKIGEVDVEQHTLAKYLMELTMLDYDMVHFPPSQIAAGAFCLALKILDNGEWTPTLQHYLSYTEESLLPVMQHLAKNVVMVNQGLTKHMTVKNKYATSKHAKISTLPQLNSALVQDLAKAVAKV
Chain of cdk4/cyclin D1 (P11802 whole entry): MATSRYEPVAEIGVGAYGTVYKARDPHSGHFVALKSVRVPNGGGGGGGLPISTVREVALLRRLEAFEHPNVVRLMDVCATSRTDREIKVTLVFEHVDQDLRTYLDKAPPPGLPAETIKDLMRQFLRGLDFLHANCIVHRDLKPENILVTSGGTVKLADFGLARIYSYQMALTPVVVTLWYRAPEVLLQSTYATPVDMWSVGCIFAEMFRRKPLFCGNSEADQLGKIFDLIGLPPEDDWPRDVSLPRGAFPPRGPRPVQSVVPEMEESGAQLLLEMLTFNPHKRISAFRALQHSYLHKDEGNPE
Chain of cdk4/cyclin D1 (P24385 whole entry partner): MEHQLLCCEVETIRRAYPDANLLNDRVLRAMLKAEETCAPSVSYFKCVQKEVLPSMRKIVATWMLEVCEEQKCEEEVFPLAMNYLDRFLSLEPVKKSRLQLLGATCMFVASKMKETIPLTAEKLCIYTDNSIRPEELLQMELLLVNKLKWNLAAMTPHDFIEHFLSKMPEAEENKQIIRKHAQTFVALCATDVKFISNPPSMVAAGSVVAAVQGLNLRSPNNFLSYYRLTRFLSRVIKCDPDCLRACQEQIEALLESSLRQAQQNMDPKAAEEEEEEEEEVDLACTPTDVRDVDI

Row | IC50 (cdk4/cyclin D1) [µM] | IC50 (MDA-MB-435) [µM] | IC50 (PC-3) [µM] | IC50 (cdk1/cyclin B) [nM] | IC50 (cdk2/cyclin E) [nM] | Structure (SMILES)
1 | 0.014 | 4.24 | 5.1 | 5 | 5 | CC(=O)Nc1ccc(S(=O)(=O)N2CCC(Nc3nc(N[C@H]4CC[C@H](N)CC4)nc4c3ncn4C3CCCC3)CC2)cc1 [compound 115, trans-N-(4-{4-[2-(4-Amino-cyclohexylamino)-9-cyclopentyl-9H-purin-6-ylamino]-piperidine-1-sulfonyl}-phenyl)-acetamide dihydrochloride]
2 | 0.697 | 0.39 | 0.39 | 45 | 79 | N[C@H]1CC[C@H](Nc2nc(NC3CCN(C(=O)CCC4CCCC4)CC3)c3ncn(C4CCCC4)c3n2)CC1 [compound 36, trans-1-{4-[2-(4-Amino-cyclohexylamino)-9-cyclopentyl-9H-purin-6-ylamino]-piperidin-1-yl}-3-cyclopentyl-propan-1-one dihydrochloride]
3 | 0.372 | 8.52 | 7.91 | 43 | 83 | COc1cc(C(=O)N2CCC(Nc3nc(N[C@H]4CC[C@H](N)CC4)nc4c3ncn4C3CCCC3)CC2)cc(OC)c1OC [compound 16, trans-1-{4-[2-(4-Amino-cyclohexylamino)-9-cyclopentyl-9H-purin-6-ylamino]-piperidin-1-yl}-1-(3,4,5-trimethoxy-phenyl)-methanone]
4 | 0.084 | 0.46 | 0.76 | 200 | 35 | N[C@H]1CC[C@H](Nc2nc(NC3CCN(S(=O)(=O)c4ccc(OC(F)(F)F)cc4)CC3)c3ncn(C4CCCC4)c3n2)CC1 [compound 134, trans-N^2-(4-Amino-cyclohexyl)-9-cyclopentyl-N^6-[1-(4-trifluoromethoxy-benzenesulfonyl)-piperidin-4-yl]-9H-purine-2,6-diamine dihydrochloride]
5 | 0.007 | 2.85 | 31.8 | 40 | 20 | COc1cc(NC(=O)N2CCC(Nc3nc(N[C@H]4CC[C@H](N)CC4)nc4c3ncn4C3CCCC3)CC2)cc(OC)c1OC [compound 198, trans-4-[2-(4-Amino-cyclohexylamino)-9-cyclopentyl-9H-purin-6-ylamino]-piperidine-1-carboxylic acid (3,4,5-trimethoxy-phenyl)-amide dihydrochloride]
6 | 0.064 | 1.19 | 1.13 | 23 | 6 | CCS(=O)(=O)N1CCC(Nc2nc(N[C@H]3CC[C@H](N)CC3)nc3c2ncn3C2CCCC2)CC1 [compound 139, trans-N^2-(4-Amino-cyclohexyl)-9-cyclopentyl-N^6-(1-ethanesulfonyl-piperidin-4-yl)-9H-purine-2,6-diamine dihydrochloride]
7 | 0.606 | 1.03 | 1.19 | 100 | 71 | Cc1ccc(C(=O)N2CCC(Nc3nc(N[C@H]4CC[C@H](N)CC4)nc4c3ncn4C3CCCC3)CC2)cc1 [compound 77, trans-1-{4-[2-(4-Amino-cyclohexylamino)-9-cyclopentyl-9H-purin-6-ylamino]-piperidin-1-yl}-1-(4-methyl-phenyl)-methanone]
8 | 0.632 | 3 | 2.4 | 27 | 56 | CCOC(=O)CC(=O)N1CCC(Nc2nc(N[C@H]3CC[C@H](N)CC3)nc3c2ncn3C2CCCC2)CC1 [compound 29, trans-3-{4-[2-(4-Amino-cyclohexylamino)-9-cyclopentyl-9H-purin-6-ylamino]-piperidin-1-yl}-3-oxo-propionic acid ethyl ester dihydrochloride]
9 | 0.35 | 0.87 | 0.69 | 40 | 59 | N[C@H]1CC[C@H](Nc2nc(NC3CCN(C(=O)Cc4ccccc4)CC3)c3ncn(C4CCCC4)c3n2)CC1 [compound 52, trans-1-{4-[2-(4-Amino-cyclohexylamino)-9-cyclopentyl-9H-purin-6-ylamino]-piperidin-1-yl}-2-phenyl-ethanone dihydrochloride]
10 | 0.801 | 1.38 | 1.7 | 71 | 58 | N[C@H]1CC[C@H](Nc2nc(NC3CCN(C(=O)c4ccc(Cl)cc4)CC3)c3ncn(C4CCCC4)c3n2)CC1 [compound 75, trans-1-{4-[2-(4-Amino-cyclohexylamino)-9-cyclopentyl-9H-purin-6-ylamino]-piperidin-1-yl}-1-(4-chloro-phenyl)-methanone]
11 | 0.085 | 9.1 | 8.97 | 200 | 55 | N[C@H]1CC[C@H](Nc2nc(NC3CCN(S(=O)(=O)CC(F)(F)F)CC3)c3ncn(C4CCCC4)c3n2)CC1 [compound 133, trans-N^2-(4-Amino-cyclohexyl)-9-cyclopentyl-N^6-[1-(2,2,2-trifluoro-ethanesulfonyl)-piperidin-4-yl]-9H-purine-2,6-diamine dihydrochloride]
12 | 0.59 | 0.48 | 0.65 | 10 | 38 | N[C@H]1CC[C@H](Nc2nc(NC3CCN(S(=O)(=O)c4ccc(I)cc4)CC3)c3ncn(C4CCCC4)c3n2)CC1 [compound 122, trans-N^2-(4-Amino-cyclohexyl)-9-cyclopentyl-N^6-[1-(4-iodo-benzenesulfonyl)-piperidin-4-yl]-9H-purine-2,6-diamine dihydrochloride]
13 | 0.593 | 1.13 | 1.03 | 65 | 62 | N[C@H]1CC[C@H](Nc2nc(NC3CCN(C(=O)C4CC4)CC3)c3ncn(C4CCCC4)c3n2)CC1 [compound 64, trans-1-{4-[2-(4-Amino-cyclohexylamino)-9-cyclopentyl-9H-purin-6-ylamino]-piperidin-1-yl}-1-cyclopropyl-methanone dihydrochloride]
14 | 0.564 | 2.18 | 1.67 | 31 | 78 | N[C@H]1CC[C@H](Nc2nc(NC3CCN(C(=O)c4cccc([N+](=O)[O-])c4)CC3)c3ncn(C4CCCC4)c3n2)CC1 [compound 26, trans-1-{4-[2-(4-Amino-cyclohexylamino)-9-cyclopentyl-9H-purin-6-ylamino]-piperidin-1-yl}-1-(3-nitro-phenyl)-methanone]
15 | 0.315 | 0.6 | 0.59 | 45 | 49 | CCCCCC(=O)N1CCC(Nc2nc(N[C@H]3CC[C@H](N)CC3)nc3c2ncn3C2CCCC2)CC1 [compound 54, trans-1-{4-[2-(4-Amino-cyclohexylamino)-9-cyclopentyl-9H-purin-6-ylamino]-piperidin-1-yl}-hexan-1-one dihydrochloride]
16 | 0.703 | 1.28 | 1.83 | 27 | 66 | COc1cccc(CC(=O)N2CCC(Nc3nc(N[C@H]4CC[C@H](N)CC4)nc4c3ncn4C3CCCC3)CC2)c1 [compound 38, trans-1-{4-[2-(4-Amino-cyclohexylamino)-9-cyclopentyl-9H-purin-6-ylamino]-piperidin-1-yl}-2-(3-methoxy-phenyl)-ethanone dihydrochloride]
17 | 0.391 | 0.44 | 0.5 | 60 | 32 | COc1ccc(NC(=O)N2CCC(Nc3nc(N[C@H]4CC[C@H](N)CC4)nc4c3ncn4C3CCCC3)CC2)c(OC)c1 [compound 151, trans-4-[2-(4-Amino-cyclohexylamino)-9-cyclopentyl-9H-purin-6-ylamino]-piperidine-1-carboxylic acid (2,4-dimethoxy-phenyl)-amide dihydrochloride]
18 | 3.25 | 1.84 | 1.63 | 290 | 232 | N[C@H]1CC[C@H](Nc2nc(NC3CCN(C(=O)NC4CCCCC4)CC3)c3ncn(C4CCCC4)c3n2)CC1 [compound 205, trans-4-[2-(4-Amino-cyclohexylamino)-9-cyclopentyl-9H-purin-6-ylamino]-piperidine-1-carboxylic acid cyclohexylamide dihydrochloride]

Row | Structure (SMILES) | IC50 (cdk4/cyclin D1) [µM] | IC50 (MDA-MB-435) [µM] | IC50 (PC-3) [µM] | IC50 (cdk1/cyclin B) [nM] | IC50 (cdk2/cyclin E) [nM]
19 | CCCCOc1ccc(C(=O)N2CCC(Nc3nc(N[C@H]4CC[C@H](N)CC4)nc4c3ncn4C3CCCC3)CC2)cc1 [compound 18, trans-1-{4-[2-(4-Amino-cyclohexylamino)-9-cyclopentyl-9H-purin-6-ylamino]-piperidin-1-yl}-1-(4-butoxy-phenyl)-methanone] | 1.49 | 2.76 | 3.43 | 506 | 336
